From patent US20170035828A1, “COMPOSITION CONTAINING SCUTELLARIA ALPINA EXTRACT” (AMOREPACIFIC CORPORATION, priority 2014, published 2017)

Legend:
Type in all cases: cell-based, human
[1] = test system: EDN1 (endothelin 1) gene; experiment: Gene expression assay by real-time PCR (EDN1) in melanocytes; details: melanocytes (KaMC), 2 nM substance P, 5 days
Protocol: (§1) Melanocytes (KaMC; KCTC 12015BP) deposited in the Korean Collection for Type Culture (KCTC) were cultured in M-254 medium (Gibco BRL, NY, USA) supplemented with Human Melanocyte Growth Supplement (HMGS; Gibco BRL, NY, USA) on a 6-well plate, while changing the medium every other day, in a 5% CO2 incubator at 37° C. until the cells occupied 95% of the plate area (95% confluence). […] The cells not treated with substance P or the alpine skullcap (Scutellaria alpina) extract of Example 1 were used as a control group. After removing the medium form the melanocytes cultured on the 6-well plate, the cells were washed 2 times with cold phosphate-buffered saline (PBS) and the remaining water was completely removed. […] 1 μL of the RNA was quantified using Synergy II (Biotek, USA). […] After adding 10 μL of Taqman Gene Expression Master Mix (Life Technologies, USA) and 1 μL of Assays-on-DemandTM (Life Technologies, USA) of NK1R (ACCESSION: NM_001058) and EDN1 (ACCESSION: NM_001168319) genes to 9 μL of the diluted cDNA, the expression of the genes was analyzed by relative quantification using 7500 Fast Real-Time PCR (Life Technologies, USA) with glyceraldehyde 3-phosphate dehydrogenase (GAPDH, ACCESSION: NM001256799) as a control gene. […]

[2] = test system: NK1R (neurokinin 1 receptor) gene; experiment: Gene expression assay by real-time PCR (NK1R) in melanocytes; details: melanocytes (KaMC), 2 nM substance P, 5 days
Protocol: as §1

[3] = test system: endothelin 1 (EDN1); experiment: Endothelin 1 ELISA assay of culture medium of treated melanocytes; details: melanocytes (KaMC), 2 nM substance P
Protocol: When the density of the melanocytes on the 6-well plate reached about 80% (˜80% confluence), they were incubated for a total of 5 days with 2 nM of stress-inducing substance P (Bachem Fechemikalien, Bubendorf, Switzerland) or the alpine skullcap (Scutellaria alpina) extract of Example 1 of different concentrations (0, 0.1, 1, 2 and 5 ppm). The cells not treated with substance P or the alpine skullcap (Scutellaria alpina) extract of Example 1 were used as a control group.
The culture medium of the cells treated with the extract in (2) of Test Example 1 were recovered and the amount of endothelin 1 (EDN1) comprised in the medium was measured at 450 nm using the human total endothelin ELISA kit (MyBioSource, USA).
Endothelin content (%)=(Absorbance/Total protein)×100 [Equation 1]

- expression of the NK1R gene (relative quantification vs GAPDH, control group = 1) [2]: 3.8
SMILES: CSCC[C@H](NC(=O)[C@H](CC(C)C)NC(=O)CNC(=O)[C@H](Cc1ccccc1)NC(=O)[C@H](Cc1ccccc1)NC(=O)[C@H](CCC(N)=O)NC(=O)[C@H](CCC(N)=O)NC(=O)[C@@H]1CCCN1C(=O)[C@H](CCCCN)NC(=O)[C@@H]1CCCN1C(=O)[C@@H](N)CCCN=C(N)N)C(N)=O [substance P]
- expression of the EDN1 gene (relative quantification vs GAPDH, control group = 1) [1]: 3.3
- content of endothelin 1 (Absorbance/Total protein x 100, control group = 100%) [3]: 124%
